# In patent publication US12697343B2, “Intravenous istaroxime for the treatment of acute heart failure” (Seismic Pharmaceuticals Operations LLC, priority 2021, dated 2026):
# Structures can show the parent of a compound that is named as a salt.
# System: patients hospitalized for acute heart failure (AHF)
# Experiment: Echocardiographic parameters (tissue Doppler echocardiography), phase II trial of 24 h istaroxime infusion
# Assay type: in vivo, human
# Set-up: E/e′ change from baseline to 24 h: dose or concentration left out as unconfirmed
# Conditions: for A wave mean change from baseline / CI mean change from baseline / E wave mean change from baseline / E/A ratio mean change from baseline / E/e′ ratio mean change from baseline / EDV Index mean change from baseline / EDV mean change from baseline / ESV Index mean change from baseline / ESV mean change from baseline / IVC diameter mean change from baseline / LAA mean change from baseline / LAV mean change from baseline / LAVI mean change from baseline / LVEF mean change from baseline / PASP mean change from baseline / SVI mean change from baseline / S′ mean change from baseline / TAPSE mean change from baseline / e′ mean change from baseline: 1.0 μg/Kg/min; for E/e′ change from baseline to 24 h (primary endpoint): 1.0 μg/kg/min (cohort 2), mITT, hydrochloride
# Description: The measurement of one or more cardiac parameters disclosed herein can be measured by Echocardiography which may be performed on subjects according to international standards (see, for example, Lang R M et a I. J Am Soc Echocardiogr 2005; 18(12): 1440-63; Nagueh S F et al. Eur J Echocardiogr 2009; 10(2): 165-93; Evangelista A et a I. Eur J Echocardiogr 2008; 9(4):438-48).
# In some embodiments, cardiac parameters can be measured as follows: • 1. Cardiac dimension measures: • a. Left ventricle end diastolic diameter (EDD): measured with M-mode echocardiography at the level of mitral valve (MV) leaflets from parasternal long axis view (PLAX) (normal range [N R]: 42-59 mm males and 39-53 mm females); • b. Left ventricle end systolic diameter (ESD): measured with M-mode echocardiography at the level of mitral valve (MV) leaflets from PLAX (N R: 25-35 mm): • c. Left ventricle end diastolic volume (EDV): measured with M-mode echocardiography at the level of mitral valve (MV) leaflets from PLAX (N R: 67-155 mL males and 56-104 mL females); • d. Left ventricle end systolic volume (ESV): measured with M-mode echocardiography at the level of mitral valve (MV) leaflets from PLAX (N R: 22-58 mL males and 19-49 mL females); • e. Left atrium diameter (LAD): measured at end-ventricular systole with M-mode echocardiography from PLAX. (N R: 30-40 mm males and 27-38 mm females) • f. Left atrium area (LAA): measured from apical four chamber view (NR: £20 cm2); and • g. Left atrium volume (LAV): derived from area-length measured from apical four chamber view (N R: 18-58 mL males and 22-52 mL females). • 2. Left ventricle diastolic function parameters: • a. E wave: measured from mitral valve pulsed wave Doppler, is the peak velocity of early filling. […] A wave: measured from mitral valve pulsed wave Doppler is the peak velocity of late atrial filling. Not evaluable in subjects with AF: • c. E wave deceleration time (EDT): measured from mitral valve pulsed wave Doppler represent the slope of the descending part of E wave; • d. E/A ratio: determines the type of diastolic filling pattern (normal E/A=1-2 and EDT=150-200 ms, abnormal relaxation E/A<1 and EDT>240 ms, pseudonormal E/A=0.8-1.5: restrictive E/A^32 and EDT <160 ms). Not evaluable in subjects with AF; • e. Ea: measured with tissue Doppler method at the lateral and septal side of the mitral annulus from apical four chamber view is the early diastolic velocity. The value has been calculated as the average between Ea lateral and Ea septal. (NR310 cm/s) (see Nagueh S F et al. Eur J Echocardiogr. 2009:10(2):165-93); • f. Aa: measured with tissue Doppler method at the lateral and septal side of the mitral annulus from apical four chamber view is the late atrial diastolic velocity. The value has been calculated as the average between Aa lateral and Aa septal. Not evaluable in subjects with AF; and • g. E/Ea ratio: this is a derived measure from E and Ea value. This is highly correlated with left ventricle filling pressure and with prognosis in subjects with HF. (NR: <13) (see Nagueh S F et al. supra). • 3. Left ventricle systolic function parameters: • a. Left ventricle ejection fraction (LVEF): measured with Simpson biplane method according to international recommendations from apical four chamber view and apical two chamber view. (NR ^355%) (see Lang R M et al. J Am Soc Echocardiogr. 2005:18(12): 1440-63); and • b. Sa: measured with tissue Doppler method at the lateral and septal side of the mitral annulus from apical four chamber view. The value has been calculated as the average between Sa lateral and Sa septal. […] Overall cardiac contraction parameters: • a. Stroke volume (SV): is a derived measure obtained with the application of Bernoulli's formula using the dimension of left ventricle outflow tract (LVOT) as diameter and LVOT time velocity integral as velocity. (NR>60 mL/beat); • b. Cardiac output (CO): is derived by the multiplication of SV× heart rate (HR) (NR: >4 L/min); • c. […]
# [1] = 1.0 μg/kg/min, mean ± standard deviation
smiles,measurement,setting,value
"C[C@]12CCC(=NOCCN)C[C@@H]1C(=O)C[C@@H]1[C@@H]2CC[C@]2(C)C(=O)CC[C@@H]12 [Istaroxime, (E,Z)-3-((2-aminoethoxy)imino)androstane-6,17-dione hydrochloride]",A wave mean change from baseline,6 hours,5.88 cm/s
same,CI mean change from baseline,6 hours,0.15 l/min/m^2
same,E wave mean change from baseline,6 hours,-10.19 cm/s
same,E/A ratio mean change from baseline,6 hours,−0.35
same,E/e′ ratio mean change from baseline,6 hours,−2.05
same,EDV Index mean change from baseline,6 hours,0.64 ml/m^2
same,EDV mean change from baseline,6 hours,1.35 mL
same,ESV Index mean change from baseline,6 hours,−2.42 ml/m^2
same,ESV mean change from baseline,6 hours,-4.62 mL
same,IVC diameter mean change from baseline,6 hours,−1.24 mm
same,LAA mean change from baseline,6 hours,−1.03 cm^2
same,LAV mean change from baseline,6 hours,-4.94 mL
same,LAVI mean change from baseline,6 hours,−2.86 mL/m^2
same,LVEF mean change from baseline,6 hours,2.35%
same,PASP mean change from baseline,6 hours,−2.60 mmHg
same,SVI mean change from baseline,6 hours,4.32 ml/beat/m^2
same,S′ mean change from baseline,6 hours,1.00 cm/s
same,TAPSE mean change from baseline,6 hours,1.56 mm
same,e′ mean change from baseline,6 hours,-0.03 cm/s
same,A wave mean change from baseline,24 hours,9.00 cm/s
same,CI mean change from baseline,24 hours,0.15 l/min/m^2
same,E wave mean change from baseline,24 hours,-14.06 cm/s
same,E/A ratio mean change from baseline,24 hours,−0.65
same,E/e′ ratio mean change from baseline,24 hours,−3.16
same,EDV Index mean change from baseline,24 hours,−2.08 ml/m^2
same,EDV mean change from baseline,24 hours,-3.67 mL
same,ESV Index mean change from baseline,24 hours,−6.23 ml/m^2
same,ESV mean change from baseline,24 hours,-11.39 mL
same,IVC diameter mean change from baseline,24 hours,−2.23 mm
same,LAA mean change from baseline,24 hours,−2.21 cm^2
same,LAV mean change from baseline,24 hours,-12.94 mL
same,LAVI mean change from baseline,24 hours,−7.32 mL/m^2
same,LVEF mean change from baseline,24 hours,3.82%
same,PASP mean change from baseline,24 hours,−4.76 mmHg
same,SVI mean change from baseline,24 hours,5.49 ml/beat/m^2
same,S′ mean change from baseline,24 hours,0.81 cm/s
same,TAPSE mean change from baseline,24 hours,1.16 mm
same,e′ mean change from baseline,24 hours,0.10 cm/s
same,A wave mean change from baseline,48 hours,5.30 cm/s
same,CI mean change from baseline,48 hours,0.20 l/min/m^2
same,E wave mean change from baseline,48 hours,-11.53 cm/s
same,E/A ratio mean change from baseline,48 hours,−0.36
same,E/e′ ratio mean change from baseline,48 hours,−2.21
same,EDV Index mean change from baseline,48 hours,−1.86 ml/m^2
same,EDV mean change from baseline,48 hours,-3.18 mL
same,ESV Index mean change from baseline,48 hours,−4.46 ml/m^2
same,ESV mean change from baseline,48 hours,-8.09 mL
same,IVC diameter mean change from baseline,48 hours,−2.19 mm
same,LAA mean change from baseline,48 hours,−0.94 cm^2
same,LAV mean change from baseline,48 hours,-6.67 mL
same,LAVI mean change from baseline,48 hours,−3.80 mL/m^2
same,LVEF mean change from baseline,48 hours,2.06%
same,PASP mean change from baseline,48 hours,−3.00 mmHg
same,SVI mean change from baseline,48 hours,2.91 ml/beat/m^2
same,S′ mean change from baseline,48 hours,0.26 cm/s
same,TAPSE mean change from baseline,48 hours,0.31 mm
same,e′ mean change from baseline,48 hours,0.19 cm/s
same,E/e′ change from baseline to 24 h (primary endpoint),mean ± standard deviation,−3.16 ± 2.59
same,E/e′ change from baseline to 24 h (primary endpoint),"mean ± standard deviation, listed as istaroxime",−3.16±2.59
same,E/A ratio change at 24 h,[1],−0.65 ± 1.10
same,LV ejection fraction change at 24 h,[1],3.82 ± 4.14%
same,LV end-diastolic volume index change at 24 h,[1],−2.08 ± 9.05 mL/m^2
same,LV end-systolic volume index change at 24 h,[1],−6.23 ± 9.23 mL/m^2
same,Left atrial area change at 24 h,[1],−2.21 ± 3.18 cm^2
same,Left atrial volume index change at 24 h,[1],−7.32 ± 10.0 mL/m^2
same,Stroke volume index change at 24 h,[1],5.49 ± 4.98 mL/beat/m^2
same,S′ change at 24 h,[1],0.81 ± 1.01 cm/s
same,E/e′ change from baseline to 24 h,per-protocol population,−3.19±2.63
